For data set [1], the system named is Isocitrate dehydrogenase [NADP] cytoplasmic (Homo sapiens), O75874 [R132H]. As to the kind of experiment: Inhibition of recombinant human IDH1 R132H mutant extracted from Escherichia coli BL21 (DE3) cells using alpha-ketoglutarate as substrate at 0.2 uM incubated for 60 mins in presence of NADPH by absorbance based assay relative to control.
For data set [2], the system named is Isocitrate dehydrogenase [NADP] cytoplasmic (Homo sapiens), O75874 [R132C]. In words: Inhibition of recombinant human IDH1 R132C mutant extracted from Escherichia coli BL21 (DE3) cells using alpha-ketoglutarate as substrate at 2 uM incubated for 60 mins in presence of NADPH by absorbance based assay relative to control.
Data set [3] has the same test system. As to the kind of experiment: Inhibition of recombinant human IDH1 R132C mutant extracted from Escherichia coli BL21 (DE3) cells using alpha-ketoglutarate as substrate at 0.2 uM incubated for 60 mins in presence of NADPH by absorbance based assay relative to control.
Data set [4] relates to Isocitrate dehydrogenase [NADP] cytoplasmic (Homo sapiens), O75874 [R132H]. In words: Inhibition of recombinant human IDH1 R132H mutant extracted from Escherichia coli BL21 (DE3) cells using alpha-ketoglutarate as substrate at 2 uM incubated for 60 mins in presence of NADPH by absorbance based assay relative to control.
In data set [5] the target is Isocitrate dehydrogenase [NADP] cytoplasmic (Homo sapiens, UniProt O75874). In words: Inhibition of recombinant human wildtype IDH1 extracted from Escherichia coli BL21 (DE3) cells using alpha-ketoglutarate as substrate incubated for 60 mins in presence of NADPH by absorbance based assay.
For data set [6], the system named is Isocitrate dehydrogenase [NADP] cytoplasmic (Homo sapiens), O75874 [R132H]. As to the kind of experiment: Inhibition of IDH1 R132H mutant in human U-87 MG cells assessed as reduction in 2-HG level at 10 uM incubated for 48 hrs in presence of NAD+ by resazurin fluorescence dye based Sigma MAK320-1 assay kit analysis relative to control. The class given is cell-based.

The subject of data set [7] is L02. In words: Cytotoxicity against human L02 cells assessed as inhibition of cell growth at 50 uM. The data set is classed as toxicity, cell-based. The note with it: l02, 50 µM.
Data set [8] concerns HT-1080. In words: Antiproliferative activity against human HT-1080 cells harboring IDH1 R132C mutant assessed as reduction in cell viability at 10 uM incubated for 72 hrs by MTT assay. The class given is functional, cell-based. Background: Tetrazolium dyes change colour on reduction, which living cells bring about.
Data set [9] has as its system HT-1080. In words: Antiproliferative activity against human HT-1080 cells harboring IDH1 R132C mutant assessed as reduction in cell viability incubated for 72 hrs by MTT assay. The class given is functional.
For data set [10], the system named is U-87 MG. As to the kind of experiment: Antiproliferative activity against human U-87 MG cells harboring IDH1 R132H mutant assessed as reduction in cell viability incubated for 72 hrs by MTT assay. The class given is functional, U-87MG ATCC.
Data set [11] deals with U-87 MG. In words: Antiproliferative activity against human U-87 MG cells assessed as reduction in cell viability incubated for 72 hrs by MTT assay. The class given is functional, U-87MG ATCC.

The source made the active and inactive calls. No cut-off for these calls is given here.

Isocitrate dehydrogenase [NADP] cytoplasmic (Homo sapiens), O75874 [R132C], sequence (O75874 whole entry R132C): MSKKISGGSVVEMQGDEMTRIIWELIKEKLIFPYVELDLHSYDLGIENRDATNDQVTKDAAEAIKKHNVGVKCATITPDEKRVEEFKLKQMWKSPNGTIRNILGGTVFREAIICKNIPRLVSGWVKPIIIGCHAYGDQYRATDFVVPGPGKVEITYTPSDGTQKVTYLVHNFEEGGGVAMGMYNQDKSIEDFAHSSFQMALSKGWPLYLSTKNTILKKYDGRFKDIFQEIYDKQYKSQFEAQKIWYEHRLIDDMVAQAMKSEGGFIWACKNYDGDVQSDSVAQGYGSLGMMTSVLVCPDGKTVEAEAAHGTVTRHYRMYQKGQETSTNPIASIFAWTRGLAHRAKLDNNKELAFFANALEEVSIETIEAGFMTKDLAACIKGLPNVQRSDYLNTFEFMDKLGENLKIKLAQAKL
Isocitrate dehydrogenase [NADP] cytoplasmic (Homo sapiens), O75874 [R132H], sequence (O75874 whole entry R132H): as the sequence (O75874 whole entry R132C) above, with C132H counted along it
Isocitrate dehydrogenase [NADP] cytoplasmic, sequence (O75874 whole entry): as the sequence (O75874 whole entry R132C) above, with C132R counted along it

For the compound `COc1cc(O)c(-c2cc(-c3ccc(O)cc3)nc(N3CCN(C(C)=O)CC3)n2)cc1CC=C(C)C`, the inhibition – broadly, the change of the read-out against control, counted positive when it falls – in data set [1] was 34.7%; in data set [2] it was 69.4%; in data set [3], 12.8%; in [4], 61.2%.

For `COc1cc(OC)c(-c2cc(-c3ccc(O)cc3)nc(-c3ncccn3)n2)cc1CC=C(C)C`, the inhibition was 33.4% in data set [1], 81.2% in data set [2], 11% in data set [3] and 91.2% in [4].

For the compound `COc1cc(O)c(-c2cc(-c3ccc(O)cc3)nc(N3CCN(c4ncccn4)CC3)n2)cc1CC=C(C)C`, the inhibition result in [1] was “inactive”. Further, the inhibition in [2] amounted to 32.5%; in data set [3] it was 10.4%; in [4], 37.4%.

With `COc1cc(O)c(-c2cc(-c3ccc(O)cc3)nc(-c3nccs3)n2)cc1CC=C(C)C`, the inhibition in data set [1] amounted to 11.1%; in data set [2] it was 56.3%; in data set [4], 61.1%. Besides, the inhibition result in [3] was “inactive”.

For `COC(=O)N1CCN(c2nc(-c3ccc(O)cc3)cc(-c3cc(CC=C(C)C)c(OC)cc3O)n2)CC1`, the inhibition in [1] came out at 21.1%; in data set [2] it was 80.1%; in data set [3] it was 24.6%; in [4] it was 75.4%.

In the case of `COc1cc(O)c(-c2cc(-c3ccc(O)cc3)nc(-c3nn(Cc4ccccc4F)c4ncccc34)n2)cc1CC=C(C)C`, the inhibition in data set [1] is 30.5%; in data set [2], 81.9%; in data set [3], 40.1%; in [4], 89.4%.

Regarding `COc1cc(O)c(-c2cc(-c3ccc(O)cc3)nc(-c3cnccn3)n2)cc1CC=C(C)C`, the inhibition in data set [1] came out at 17.2%; in data set [2] it was 67.3%; in data set [3], 24.5%; in data set [4], 81.8%.

As for `CC(Cc1ccc(O)c(O)c1)C(C)Cc1ccc(O)c(O)c1` (configuration not stated) [NORDIHYDROGUAIARETIC ACID], the concentration for half-maximal inhibition (IC50) (usually the midpoint of a concentration-inhibition curve) in data set [5] is more than 20 µM. The inhibition in data set [4] was 51.2%; in data set [6], less than 10%.

With `COc1cc(O)c(-c2cc(-c3ccc(O)cc3)nc(N3CCOCC3)n2)cc1CC=C(C)C`, the inhibition was 13.8% in data set [1], 94.6% in data set [2], 24.1% in data set [3] and 82.1% in data set [4].

Regarding `COc1cc(O)c(-c2cc(-c3ccc(O)cc3)nc(-c3ccccc3)n2)cc1CC=C(C)C`, the inhibition was 27% in data set [1], 96.4% in [2], 37.7% in [3] and 88.5% in [4].

Take `COc1cc(O)c(-c2cc(-c3ccc(O)cc3)nc(-c3ccncc3Cl)n2)cc1CC=C(C)C`: the inhibition in [1] was determined as 10.5%; in [2], 74.1%; in data set [3] it was 14.9%; in [4], 95.1%.

`COc1cc(O)c(-c2cc(-c3ccc(O)cc3)nc(C(C)(C)C)n2)cc1CC=C(C)C`: the inhibition amounted to 13.5% in [1], 53.1% in data set [2], 14.7% in data set [3] and 60.4% in data set [4].

`CCCCc1nc(-c2ccc(O)cc2)cc(-c2cc(CC=C(C)C)c(OC)cc2O)n1`: the inhibition in data set [1] worked out at 7.6%; in data set [2] it was 41.2%; in data set [3], 10.3%; in data set [4] it was 51.6%.

As to `COc1cc(O)c(-c2cc(-c3ccc(O)cc3)nc(-c3ccncc3)n2)cc1CC=C(C)C`, the Activity result in data set [7] was “Toxic”. Also, the inhibition in [1] was 9.7%; in [2], 68.1%; in data set [3], 28.2%; in [4], 56.7%. Further, the result in data set [8] was Active. For the same compound, the GC50 in data set [9] was found to be 6 µM.

With `COc1cc(O)c(C(=O)/C=C/c2ccc(O)cc2)cc1CC=C(C)C`, in data set [5], the IC50 is more than 20 µM. Moreover, the inhibition in data set [1] was found to be 14.9%; in data set [2], 46.3%; in [4] it was 54%; in [6], 35.8%. Besides, the inhibition result in [3] is “inactive”.

As for `COCOc1ccc(/C=C/C(=O)c2cc(CC=C(C)C)c(OC)cc2O)cc1`, the inhibition result in data set [1], in data set [2], in data set [3] and in data set [4] was “inactive” in each case.

Take `COc1cc(O)c(-c2cc(-c3ccc(O)cc3)nc(C3CCCO3)n2)cc1CC=C(C)C` (configuration not stated): the inhibition in [1] worked out at 14.7%; in data set [2], 70.4%; in data set [3], 13.4%; in [4], 60.1%.

Take `COc1cc(O)c(-c2cc(-c3ccc(O)cc3)nc(-c3cccnc3)n2)cc1CC=C(C)C`: in data set [7], the Activity result is given as “Toxic”. In addition, the inhibition was found to be 17.7% in [1], 57.9% in data set [2], 20.3% in data set [3] and 48.3% in data set [4].

In the case of `COc1cc(O)c(-c2cc(-c3ccc(O)cc3)ncn2)cc1CC=C(C)C`, the Activity result in data set [7] is listed as “Toxic”. In addition, the inhibition in [1] is 13.4%; in [2], 58.6%; in [3], 17.8%; in data set [4], 47.2%.

Regarding `COCOc1ccc(/C=C/C(=O)c2cc(CC=C(C)C)c(OC)cc2OC)cc1`, the inhibition entry in data set [1], in data set [2], in data set [3] and in [4] was “inactive” throughout.

In the case of `COc1cc(O)c(-c2cc(-c3ccc(O)cc3)[nH]n2)cc1CC=C(C)C`, the inhibition entry in data set [1] was “inactive”. The inhibition was 29.1% in data set [2], 14.2% in data set [3] and 17.5% in data set [4].

In the case of `O=C(/C=C/c1ccc(O)cc1)OC[C@H]1O[C@@H](Oc2c(-c3ccc(O)cc3)oc3cc(O)cc(O)c3c2=O)[C@H](O)[C@@H](O)[C@@H]1O` [TILIROSIDE], the IC50 in [5] is more than 20 µM. For the same compound, the inhibition is 58.1% in data set [4] and less than 10% in [6].

As for `COc1cc(O)c(-c2cc(-c3ccc(O)cc3)nc(-c3ccccn3)n2)cc1CC=C(C)C`, in data set [7], the Activity entry is listed as “Toxic”. In addition, the inhibition in data set [1] was determined as 33.1%; in [2], 76.8%; in data set [3], 22.7%; in data set [4], 74%. In addition, the GC50 in data set [10] is more than 20 µM; in [9], 0.85 µM; in [11] it was more than 20 µM. Moreover, the outcome in data set [8] was Active.

For the compound `COc1cc(O)c(-c2cc(-c3ccc(O)cc3)nc(C)n2)cc1CC=C(C)C`, in data set [7], the Activity result was “Toxic”. In addition, the inhibition in [1] worked out at 13.6%; in data set [2], 67.2%; in data set [3], 12.5%; in data set [4], 49.1%.

Regarding `COc1cc(O)c(-c2cc(-c3ccc(O)cc3)nc(N3CCCC3)n2)cc1CC=C(C)C`, the inhibition in data set [1] turned out to be 5%; in data set [2], 84.3%; in data set [3], 30.9%; in data set [4], 70.2%.

Take `COc1cc(O)c(-c2cc(-c3ccc(O)cc3)nc(-c3ncccn3)n2)cc1CC=C(C)C`: the inhibition in [1] was 41.3%; in data set [2], more than 100%; in data set [3], 14.6%; in data set [4], more than 100%.

Consider `COc1ccc(-c2cc(-c3cc(CC=C(C)C)c(OC)cc3OC)nc(-c3ncccn3)n2)cc1`, for which the Activity entry in [7] was “Toxic”. In addition, the inhibition in data set [1] is 12.1%; in data set [2], 92.4%; in data set [3], 24.7%; in data set [4] it was 87.3%.

For `COc1cc(O)c(-c2cc(-c3ccc(O)cc3)nc(N3CCCCC3)n2)cc1CC=C(C)C`, the inhibition came to 9.4% in data set [1], 89.7% in data set [2], 11.8% in data set [3] and 93.6% in data set [4].

On to `COc1cc(O)c(-c2cc(-c3ccc(O)cc3)nc(N)n2)cc1CC=C(C)C`, for which the inhibition in [1] came to 11.2%; in data set [2], 47.5%; in data set [3], 8.9%; in [4], 30.7%.

As to `COc1cc(OC)c(C(=O)/C=C/c2ccc(O)cc2)cc1CC=C(C)C`, the inhibition entry in data set [1], in data set [2], in data set [3] and in data set [4] was “inactive” in each case.

Values taken from ChEMBL document CHEMBL5608173, “Discovery of novel natural-product-derived mutant isocitrate dehydrogenases 1 inhibitors: Structure-based virtual screening, biological evaluation and structure-activity relationship study” (Eur J Med Chem, 2024).
